Measured values reported in patent US4874869A, “Hydantoin derivatives and medicines containing the same” (Eisai Co., Ltd., priority 1980, dated 1989).
Where two headings read alike, the source gives them in different places.

Key:
[1] = tested on: sorbitol accumulation in the lens and the sciatic nerve; test: Reduction or inhibition of sorbitol accumulation in the lens and the sciatic nerve of streptozotocin-induced diabetic rats; format: in vivo, rat; conditions: for Inhibition of sorbitol accumulation: vs no compound; for higher activities such as the inhibition of sorbitol accumulation, predominant diastereomer compared with the other isomer: predominant vs minor diastereomer; for superior effect on the inhibition of sorbitol accumulation in comparison with the control compound: vs control compound, Table 1
Description: The compounds listed in Tables 1 and 2 were tested for the ability to reduce or inhibit the accumulation of sorbitol in the lens and the sciatic nerve of streptozotocin-induced diabetic rats by the method of M. J. Peterson et al., [Metabolism, Vol. 28, No. 4, Supply. 1 (April), 456-461 (1979)]. […] In this experiment, the amount of sorbitol accumulation in the lens and the sciatic nerve of the rat was measured 28 hours after induction of diabetes.
The compounds listed in Tables 1 and 2 were orally administered at, the dose levels indicated in the Tables, 4, 8 and 25 hours after the administration of the streptozotocin.

[2] = tested on: cataract formation in galactosemic rats; test: Effect on cataract formation in galactosemic rats (visual observation of lenticular opacities); format: in vivo, male Sprague-Dawley rats; conditions: for lenticular opacities, number with grade + / lenticular opacities, number with grade - (no opacity): 16th day, total 6
Description: (§1) On the 16th day of the study (24 hours after the final administration) lenticular opacities were observed, and then the lens and the sciatic nerve were enucleated to determine the content of carbohydrates.
The abscissa in FIG. 1 indicates the number of days from the beginning of feeding of a 30% galactose diet, and the ordinate indicates the percentages of appearance of the cataract.
In Table 3, a symbol - represents the case of no opacity and +, ++, +++ show the grade of the opacity, respectively.

[3] = tested on: galactitol accumulation in the lens and the sciatic nerve; test: Inhibition of galactitol accumulation in the lens and the sciatic nerve of galactosemic rats; format: in vivo, male Sprague-Dawley rats; conditions: for Inhibition of galactitol accumulation: 16th day
Description: as §1

[4] = biological target: T1, aldose reductase (Bos taurus, UniProt P16116); test: Inhibition effect on aldose reductase; format: biochemical; conditions: for activity of the d-type relative to the dl-type product: aldose reductase
T1 construct: Aldose reductase was prepared by the method of Hayman et al; from tissue
Description: Aldose reductase was prepared by the method of Hayman et al. [S. Hayman and K.K. Kinoshita; Journal of Biological Chemistry, Vol. 240, p.

[5] = lens, 0.2 mg/kg oral, 4, 8 and 25 h after streptozotocin
[6] = lens, 1 mg/kg oral, 4, 8 and 25 h after streptozotocin
[7] = lens, 5 mg/kg oral, 4, 8 and 25 h after streptozotocin
[8] = lens, 10 mg/kg oral, 4, 8 and 25 h after streptozotocin
[9] = sciatic nerve, 0.2 mg/kg oral, 4, 8 and 25 h after streptozotocin
[10] = sciatic nerve, 1 mg/kg oral, 4, 8 and 25 h after streptozotocin
[11] = sciatic nerve, 5 mg/kg oral, 4, 8 and 25 h after streptozotocin
[12] = sciatic nerve, 10 mg/kg oral, 4, 8 and 25 h after streptozotocin
[13] = Table 5, read-out: ID50 (concentration of 50% inhibition on aldose reductase)
[14] = similar manner as in Experiment 3, d-type vs dl-type product, read-out: ID50, inhibition effect on the Aldose reductase

SMILES: CC1(C)CC2(NC(=O)NC2=O)c2cc(Cl)ccc2O1 (stereo not shown) [6-Chloro-2,2-dimethyl-spiro-[chroman-4,4'-imidazolidine]-2',5'-dione]
- Inhibition of sorbitol accumulation [1, 5]: 11%
- Inhibition of sorbitol accumulation [1, 6]: 60%
- Inhibition of sorbitol accumulation [1, 7]: 78%
- Inhibition of sorbitol accumulation [1, 8]: 89%
- Inhibition of sorbitol accumulation [1, 9]: 47%
- Inhibition of sorbitol accumulation [1, 10]: 86%
- Inhibition of sorbitol accumulation [1, 11]: 95%
- Inhibition of sorbitol accumulation [1, 12]: 100%
- lenticular opacities on the 16th day (in words) ([2]; 5 mg/kg oral once a day): lenticular opacities were not observed
- lenticular opacities on the 16th day (in words) ([2]; 25 mg/kg oral once a day): lenticular opacities were not observed
- inhibition effect on cataract formation (in words) ([2]; galactosemic rats, FIG. 1 and Table 3): superior to the control compound
- lenticular opacities, number with grade + ([2]; left, 1 mg/kg oral once a day): 1
- lenticular opacities, number with grade - (no opacity) ([2]; left, 1 mg/kg oral once a day): 5
- lenticular opacities, number with grade - (no opacity) ([2]; left, 5 mg/kg oral once a day): 6
- lenticular opacities, number with grade - (no opacity) ([2]; left, 25 mg/kg oral once a day): 6
- lenticular opacities, number with grade + ([2]; right, 1 mg/kg oral once a day): 1
- lenticular opacities, number with grade - (no opacity) ([2]; right, 1 mg/kg oral once a day): 5
- lenticular opacities, number with grade - (no opacity) ([2]; right, 5 mg/kg oral once a day): 6
- lenticular opacities, number with grade - (no opacity) ([2]; right, 25 mg/kg oral once a day): 6
- Inhibition of galactitol accumulation ([3]; lens, 1 mg/kg oral once a day): 2%
- Inhibition of galactitol accumulation ([3]; lens, 5 mg/kg oral once a day): 19%
- Inhibition of galactitol accumulation ([3]; lens, 25 mg/kg oral once a day): 46%
- Inhibition of galactitol accumulation ([3]; sciatic nerve, 1 mg/kg oral once a day): 5%
- Inhibition of galactitol accumulation ([3]; sciatic nerve, 5 mg/kg oral once a day): 50%
- Inhibition of galactitol accumulation ([3]; sciatic nerve, 25 mg/kg oral once a day): 74%
- inhibitory effect on galactitol accumulation in the sciatic nerve relative to the control compound ([3]; sciatic nerve, vs control compound): five times or more
- inhibition of galactitol accumulation relative to the control compound ([3]; vs control compound): remarkably superior to the control compound
- Inhibition on aldose reductase ([4]; 3 × 10^-6 (M)): 79%
- Inhibition on aldose reductase ([4]; 3 × 10^-7 (M)): 8%
- Inhibition on aldose reductase ([4]; 10^-6 (M)): 47%
- Inhibition on aldose reductase ([4]; 10^-7 (M)): -4%
- IC50 [4, 13]: 1000 nM

SMILES: CC1CC2(NC(=O)NC2=O)c2cc(F)ccc2O1 (stereo not drawn) [d-6-fluoro-2-methyl-spiro-[chromane-4,4'-imidazolidine]-2',5'-dione]
- activity of the d-type relative to the dl-type product ([4]; d-type vs dl-type product): about twice
- IC50 [4, 14]: 93 nM

SMILES: CC1CC2(NC(=O)NC2=O)c2ccccc2O1 (stereo not shown) [2-Methyl-spiro-[chroman-4,4'-imidazolidine]-2',5'-dione]
- Inhibition of sorbitol accumulation [1, 7]: 54%
- Inhibition of sorbitol accumulation [1, 11]: 77%

SMILES: CC1CC2(NC(=O)NC2=O)c2cc(Cl)ccc2O1 (stereo not shown) [6-Chloro-2-methyl-spiro-[chroman-4,4'-imidazolidine]-2',5'-dione]
- Inhibition of sorbitol accumulation [1, 8]: 97%
- higher activities such as the inhibition of sorbitol accumulation, predominant diastereomer compared with the other isomer [1]: 3-5 times
- Inhibition of sorbitol accumulation [1, 12]: 82%
- superior effect on the inhibition of sorbitol accumulation in comparison with the control compound [1]: 2-10 times
- Inhibition on aldose reductase ([4]; 3 × 10^-6 (M)): 92%
- Inhibition on aldose reductase ([4]; 3 × 10^-7 (M)): 31%
- Inhibition on aldose reductase ([4]; 10^-6 (M)): 84%
- Inhibition on aldose reductase ([4]; 10^-7 (M)): 0%
- IC50 [4, 13]: 400 nM
- IC50 [4, 14]: 77 nM

SMILES: CC1(C)CC2(NC(=O)NC2=O)c2cc(F)ccc2O1 (stereo not shown) [6-Fluoro-2,2-dimethyl-spiro-[chroman-4,4'-imidazolidine]-2',5'-dione]
- Inhibition of sorbitol accumulation [1, 5]: 35%
- Inhibition of sorbitol accumulation [1, 6]: 58%
- Inhibition of sorbitol accumulation [1, 7]: 72%
- Inhibition of sorbitol accumulation [1, 8]: 81%
- Inhibition of sorbitol accumulation [1, 9]: 22%
- Inhibition of sorbitol accumulation [1, 10]: 33%
- Inhibition of sorbitol accumulation [1, 11]: 81%
- Inhibition of sorbitol accumulation [1, 12]: 93%
- Inhibition on aldose reductase ([4]; 3 × 10^-6 (M)): 70%
- Inhibition on aldose reductase ([4]; 3 × 10^-7 (M)): 12%
- Inhibition on aldose reductase ([4]; 10^-6 (M)): 40%
- Inhibition on aldose reductase ([4]; 10^-7 (M)): 0%
- IC50 [4, 13]: 2000 nM

SMILES: CC1Oc2ccc(Cl)cc2C12NC(=O)NC2=O (stereo not shown) [5-Chloro-2-methyl-spiro-[benzofuran-3,4'-imidazolidine]-2',5'-dione]
- Inhibition of sorbitol accumulation [1, 8]: 95%
- Inhibition of sorbitol accumulation [1, 12]: 45%

SMILES: CC1(C)CC2(NC(=O)NC2=O)c2cc(Br)ccc2O1 (stereo not shown) [6-Bromo-2,2-dimethyl-spiro-[chroman-4,4'-imidazolidine]-2',5'-dione]
- Inhibition of sorbitol accumulation [1, 8]: 88%
- Inhibition of sorbitol accumulation [1, 12]: 100%

SMILES: CC1(C)CC2(NC(=O)NC2=O)c2cc(Cl)cc(Cl)c2O1 (stereo not shown) [6,8-Dichloro-2,2-dimethyl-spiro-[chroman-4,4'-imidazolidine]-2',5'-dione]
- Inhibition of sorbitol accumulation [1, 8]: 87%
- Inhibition of sorbitol accumulation [1, 12]: 55%

SMILES: CC1CC2(NC(=O)NC2=O)c2cc(Cl)ccc2O1 (stereo not drawn) [d-6-chloro-2-methyl-spiro-[chromane-4,4'-imidazolidine]-2',5'-dione]
- activity of the d-type relative to the dl-type product ([4]; d-type vs dl-type product): about twice
- IC50 [4, 14]: 43 nM

SMILES: CC1CC2(NC(=O)NC2=O)c2cc(F)ccc2O1 (stereo not shown) [6-Fluoro-2-methyl-spiro-[chroman-4,4'-imidazolidine]-2',5'-dione]
- Inhibition of sorbitol accumulation [1, 5]: 43%
- Inhibition of sorbitol accumulation [1, 6]: 80%
- Inhibition of sorbitol accumulation [1, 7]: 93%
- Inhibition of sorbitol accumulation [1, 8]: 96%
- higher activities such as the inhibition of sorbitol accumulation, predominant diastereomer compared with the other isomer [1]: 3-5 times
- Inhibition of sorbitol accumulation [1, 9]: 39%
- Inhibition of sorbitol accumulation [1, 10]: 100%
- Inhibition of sorbitol accumulation [1, 11]: 100%
- Inhibition of sorbitol accumulation [1, 12]: 100%
- superior effect on the inhibition of sorbitol accumulation in comparison with the control compound [1]: 2-10 times
- Inhibition on aldose reductase ([4]; 3 × 10^-6 (M)): 91%
- Inhibition on aldose reductase ([4]; 3 × 10^-7 (M)): 31%
- Inhibition on aldose reductase ([4]; 10^-6 (M)): 77%
- Inhibition on aldose reductase ([4]; 10^-7 (M)): 7%
- IC50 [4, 13]: 500 nM
- IC50 [4, 14]: 180 nM

SMILES: CC1CC2(NC(=O)NC2=O)c2ccc(Cl)cc2O1 (stereo not shown) [7-Chloro-2-methyl-spiro-[chroman-4,4'-imidazolidine]-2',5'-dione]
- Inhibition of sorbitol accumulation [1, 7]: 83%

SMILES: CC1CC2(NC(=O)NC2=O)c2cc(Cl)c(Cl)cc2O1 (stereo not shown) [6,7-Dichloro-2-methyl-spiro-[chroman-4,4'-imidazolidine]-2',5'-dione]
- Inhibition of sorbitol accumulation [1, 7]: 88%
